Experiments:
[1] = target: T1, cytoplasmic domain of the human VEGF receptor (VEGFR-2) (Homo sapiens, UniProt P35968); test: KDR Assay; type: biochemical; conditions: His-VEGFR-2; 3.6 μM ATP
T1 construct: The cytoplasmic domain of the human VEGF receptor (VEGFR-2) was expressed as a Histidine-tagged fusion protein; Histidine tag
Procedure: The cytoplasmic domain of the human VEGF receptor (VEGFR-2) was expressed as a Histidine-tagged fusion protein following infection of insect cells using an engineered baculovirus. His-VEGFR-2 was purified to homogeneity, as determined by SDS-PAGE, using nickel resin chromatography. Kinase assays were performed in 96 well microtiter plates that were coated overnight with 30 μg of poly-Glu-Tyr (4:1) in 10 mM Phosphate Buffered Saline (PBS), pH 7.2-7.4. The plates were incubated with 1% BSA and then washed four times with PBS prior to starting the reaction. Reactions were carried out in 120 μL reaction volumes containing 3.6 μM ATP in kinase buffer (50 mM Hepes buffer pH 7.4, 20 mM MgCl2, 0.1 mM MnCl2 and 0.2 mM Na3VO4). Test compounds were reconstituted in 100% DMSO and added to the reaction to give a final DMSO concentration of 5%. Reactions were initiated by the addition 0.5 ng of purified protein. Following a ten minute incubation at 25° C., the reactions were washed four times with PBS containing 0.05% Tween-20. 100 μl of a monoclonal anti-phosphotyrosine antibody-peroxidase conjugate was diluted 1:10000 in PBS-Tween-20 and added to the wells for 30 minutes. Following four washes with PBS-Tween-20, 100 μl of O-phenylenediamine Dihydrochloride in Phosphate-citrate buffer, containing urea hydrogen peroxide, was added to the wells for 7 minutes as a colorimetric substrate for the peroxidase. The reaction was terminated by the addition of 100 μl of 2.5N H2SO4 to each well and read using a microplate ELISA reader set at 492 nm. IC50 values for compound inhibition were calculated directly from graphs of optical density (arbitrary units) versus compound concentration following subtraction of blank values.

[2] = test system: VEGF induced increases in intracellular calcium levels in HUVEC (human umbilical vein endothelial cells); test: VEGF Stimulated Ca++ Signal in vitro (FLIPR); type: cell-based; conditions: VEGF 5 ng/mL; for IC50: 0.01 to 10.0 μM
Procedure, shortened: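 HUVEC loaded with Fluo-4 (45 min, 37° C.), washed, then pre-incubated 30 min with compound (10 μM single dose or 0.01–10.0 μM; 0.1% DMSO) before 5 ng/mL VEGF. Fluorescence at 516 nm read by FLIPR; IC50 from % inhibition of max-min VEGF response.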

T1 sequence (P35968 786-1356): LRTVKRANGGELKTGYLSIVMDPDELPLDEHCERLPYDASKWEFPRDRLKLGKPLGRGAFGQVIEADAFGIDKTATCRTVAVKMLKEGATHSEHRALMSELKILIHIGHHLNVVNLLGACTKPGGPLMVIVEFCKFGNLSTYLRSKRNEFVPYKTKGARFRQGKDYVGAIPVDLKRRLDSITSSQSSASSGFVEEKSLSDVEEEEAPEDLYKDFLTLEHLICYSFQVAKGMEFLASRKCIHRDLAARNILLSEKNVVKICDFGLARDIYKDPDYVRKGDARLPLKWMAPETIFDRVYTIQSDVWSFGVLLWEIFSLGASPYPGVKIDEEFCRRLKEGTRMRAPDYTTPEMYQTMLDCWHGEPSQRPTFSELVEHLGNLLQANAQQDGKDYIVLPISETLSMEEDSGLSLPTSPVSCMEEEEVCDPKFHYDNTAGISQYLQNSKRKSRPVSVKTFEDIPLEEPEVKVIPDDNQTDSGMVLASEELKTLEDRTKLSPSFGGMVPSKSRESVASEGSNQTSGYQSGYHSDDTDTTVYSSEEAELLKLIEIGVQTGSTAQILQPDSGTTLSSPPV

| Structure (SMILES) | IC50 [1] [µM] | inhibition at 10 µM ([2]; Homo sapiens) [%] | IC50 ([2]; Homo sapiens) [µM] | IC50 [2] [µM] |
| --- | --- | --- | --- | --- |
| O=C1Nc2ccc(F)cc2C1=CNc1ccc2ncsc2c1 [Example 173, 3-(Benzothiazol-6-ylaminomethylene)-5-fluoro-1,3-dihydro-indol-2-one] | 0.52 | 94.5 | 1.48 |  |
| O=C1Nc2ccccc2C1=CNc1ccc(OCCCCCl)cc1 [Example 199, 3-{[4-(4-Chloro-butoxy)-phenylamino]-methylene}-1,3-dihydro-indol-2-one] | 0.29 | 32.4 |  |  |
| CCN(CC)Cc1cc(NC=C2C(=O)Nc3ccc(Cl)cc32)ccc1O [Example 109, 5-Chloro-3-[(4-hydoxy-3-(diethylaminomethyl)phenylamino)-methylene]-1,3-dihydro-indol-2-one] | 0.6 | 96.5 | 1.7 |  |
| O=C1Nc2ccccc2C1=CNc1ccc(OC(F)F)cc1 [Example 50, 3-{[4-(1,1-Difluoro-methoxy)-phenylamino]-methylene}-1,3-dihydro-indol-2-one] | 0.55 | 93.5 | 1.65 |  |
| COc1cccc(NC=C2C(=O)Nc3ccc(Cl)cc32)c1 [Example 57, 5-Chloro-3-[(3-methoxy-phenylamino)-methylene]-1,3-dihydro-indol-2-one] | 1.88 | 60 | 5.85 |  |
| CSc1ccc(NC=C2C(=O)Nc3ccc(Cl)cc32)cc1 [Example 138, 5-Chloro-3-[(4-methylsulfanyl-phenylamino)-methylene]-1,3-dihydro-indol-2-one] | 0.73 | 80.9 | 7.07 |  |
| Cc1cccc2c1C(=CNc1ccc(OC(F)F)cc1)C(=O)N2 [Example 119, 3-{[4-(1,1-Difluoro-methoxy)-phenylamino]-methylene}-4-methyl-1,3-dihydro-indol-2-one] | 0.53 | 89.3 | 1.34 |  |
| O=C(O)CCc1cccc(NC=C2C(=O)Nc3ccc(Cl)cc32)c1 [Example 143, 3-{3-[(5-Chloro-2-oxo-1,2-dihydro-indol-3-ylidenemethyl)-amino]-phenyl}-propionic acid] | 0.52 | 66.9 | 7.61 |  |
| NS(=O)(=O)c1ccc(NC=C2C(=O)Nc3ccc(Cl)cc32)cc1 [Example 116, 4-[(5-Chloro-2-oxo-1,2-dihydro-indol-3-ylidenemethyl)-amino]-benzenesulfonamide] | 0.98 | 99.4 | 1.64 |  |
| O=C1Nc2ccccc2C1=CNc1cccc(S(=O)(=O)NCCCO)c1 [Example 193, N-(3-Hydroxy-propyl)-3-[(2-oxo-1,2-dihydro-indol-3-ylidenemethyl)-amino]-benzenesulfonamide] | 2.47 | 81.5 | 4.77 |  |
| O=C1Nc2ccc(F)cc2C1=CNc1ccccc1 [Example 169, 5-Fluoro-3-phenylaminomethylene-1,3-dihydro-indol-2-one] | 0.61 | 93.4 | 1.16 |  |
| N#Cc1ccc(NC=C2C(=O)Nc3ccccc32)cc1 [Example 29, 3-[(4-Cyanophenylamino)-methylene]-1,3-dihydro-indol-2-one] | 0.68 | 81.5 | 7.29 |  |
| O=C1Nc2ccccc2C1=CNc1ccc(CN2CCOCC2)cc1 [Example 290, 3-[(4-Morpholin-4-ylmethyl-phenylamino)-methylene]-1,3-dihydro-indol-2-one] | 0.58 |  |  |  |

The next lines start with results.

| IC50 [1] [µM] | Structure (SMILES) | inhibition at 10 µM ([2]; Homo sapiens) [%] | IC50 ([2]; Homo sapiens) [µM] | IC50 [2] [µM] |
| --- | --- | --- | --- | --- |
| 0.25 | CCN(CC)CCCOc1ccc(NC=C2C(=O)Nc3cc(-c4cccc(OC)c4)ccc32)cc1 [Example 277, 3-{[4-(3-Diethylamino-propoxy)-phenylamino]-methylene}-6-(3-Methoxy-phenyl)-1,3-dihydro-indol-2-one] |  | ≥ 10 |  |
| 0.39 | O=C1Nc2cccc(F)c2C1=CNc1ccc(OCCN2CCCCC2)cc1 [Example 261, 4-Fluoro-3-{[4-(2-piperidin-1-yl-ethoxy)-phenylamino]-methylene}-1,3-dihydro-indol-2-one] |  | 1.06 |  |
| 0.27 | O=C1Nc2ccc(Cl)cc2C1=CNc1ccc(CCN2CCOCC2)cc1 [Example 307, 5-Chloro-3-{[4-(2-morpholin-4-yl-ethyl)-phenylamino]-methylene}-1,3-dihydro-indol-2-one] |  | ≤ 1 | 0.65 |
| 0.47 | O=C1Nc2cccc(F)c2C1=CNc1ccc(CN2CCOCC2)cc1 [Example 293, 4-Fluoro-3-[(4-morpholin-4-ylmethyl-phenylamino)-methylene]-1,3-dihydro-indol-2-one] |  | ≤ 1 | 0.88 |
| 0.33 | O=C1Nc2cccc(F)c2C1=CNc1ccc(OCCN2CCCC2)cc1 [Example 273, 4-Fluoro-3-{[4-(2-pyrrolidin-1-yl-ethoxy)-phenylamino]-methylene}-1,3-dihydro-indol-2-one] |  | 1.07 |  |
| 0.14 | CN1CCN(c2ccc(NC=C3C(=O)Nc4ccc(F)cc43)cc2)CC1 [Example 168, 5-Fluoro-3-{[4-(4-methyl-piperazin-1-yl)-phenylamino]-methylene}-1,3-dihydro-indol-2-one] | 94.3 |  |  |
| 0.05 | Cc1cccc2c1C(=CNc1ccc(N3CCOCC3)cc1)C(=O)N2 [Example 227, 4-Methyl-3-[(4-morpholin-4-yl-phenylamino)-methylene]-1,3-dihydro-indol-2-one] | 85.9 |  |  |
| 0.36 | Cc1cccc2c1C(=CNc1ccccc1)C(=O)N2 [Example 58, 4-Methyl-3-phenylaminomethylene-1,3-dihydro-indol-2-one] | 86.6 | ≤ 1 | 0.81 |
| 0.2 | Cc1cccc2c1C(=CNc1ccc3cc[nH]c3c1)C(=O)N2 [Example 97, 3-[(1H-Indol-6-ylamino)-methylene]-4-methyl-1,3-dihydro-indol-2-one] | 96.5 | 1.86 |  |
| 0.48 | CCc1ccc(NC=C2C(=O)Nc3ccccc32)cc1 [Example 5, 3-[(4-Ethyl-phenylamino)-methylene]-1,3-dihydro-indol-2-one] | 77.3 | 1.82 |  |
| 0.23 | O=C1Nc2cccc(F)c2C1=CNc1ccc(CCN2CCOCC2)cc1 [Example 309, 4-Fluoro-3-{[4-(2-morpholin-4-yl-ethyl)-phenylamino]-methylene}-1,3-dihydro-indol-2-one] |  | ≤ 1 | 0.68 |
| 0.09 | Cc1cccc2c1C(=CNc1ccc(S(=O)(=O)NCCO)cc1)C(=O)N2 [Example 197, N-(2-Hydroxy-ethyl)-4-[(4-methyl-2-oxo-1,2-dihydro-indol-3-ylidenemethyl)-amino]-benzenesulfonamide] | 98.1 |  |  |
| 0.27 | CSc1ccc(NC=C2C(=O)Nc3cccc(C)c32)cc1 [Example 137, 4-Methyl-3-[(4-methylsulfanyl-phenylamino)-methylene]-1,3-dihydro-indol-2-one] | 65.4 | 1.67 |  |
| 0.15 | Cc1cccc2c1C(=CNc1ccc3ncsc3c1)C(=O)N2 [Example 92, 3-(Benzothiazol-6-ylaminomethylene)-4-methyl-1,3-dihydro-indol-2-one] | 69 | 1.77 |  |
| 0.23 | CCN(CC)CCCOc1ccc(NC=C2C(=O)Nc3cccc(F)c32)cc1F [Example 267, 3-{[4-(3-Diethylamino-propoxy)-3-fluoro-phenylamino]-methylene}-4-fluoro-1,3-dihydro-indol-2-one] |  | 1.42 |  |
| 0.47 | O=C(O)Cc1ccc(NC=C2C(=O)Nc3ccc(Cl)cc32)cc1 [Example 115, {4-[(5-Chloro-2-oxo-1,2-dihydro-indol-3-ylidenemethyl)-amino]-phenyl}-acetic acid] | 98.2 | 3.08 |  |
| 0.32 | O=C1Nc2ccc(F)cc2C1=CNc1ccc2cn[nH]c2c1 [Example 163, 5-Fluoro-3-[(1 h-indazol-6-ylamino)-methylene]-1,3-dihydro-indol-2-one] | 95.3 | ≤ 1 | 0.85 |
| 0.25 | O=C1Nc2ccccc2C1=CNc1ccc(CCN2CCCCC2)cc1 [Example 284, 3-{[4-(2-Piperidin-1-yl-ethyl)-phenylamino]-methylene}-1,3-dihydro-indol-2-one] |  |  |  |
